What was measured:
ABCA1 mRNA = assay: Intestinal mucosa ABCA1 mRNA by quantitative PCR in treated mice; type: in vivo; settings: daily oral 7 days
Procedure: The LXR pan-agonist-dependent inhibition of cholesterol absorption is believed to result from the ability of LXRs to induce the expression of ATP binding cassette transporters such as ABCA1 in the intestine. To examine the contributions of LXRα and LXRβ to intestinal gene expression and dietary cholesterol absorption, Compound 1 was administered to wildtype, LXRα−/−, LXRβ−/− and LXRαβ−/− mice for seven days by daily oral gavage in a sesame oil/ethanol vehicle via a 1 cc syringe fitted with a 20G disposable feeding needle. Compound was solvated in ethanol (5% final volume) and brought up to final volume with sesame oil (Sigma, St. Louis, Mo.). Three hours after the final dose (day 7) animals were sacrificed, intestines were harvested, and intestinal enterocytes were isolated by gently scraping the mucosa layer away from the rest of the tissue. Total intestinal mucosa RNA was isolated using RNeasy kits (QIAGEN Inc.) according to the supplier's total RNA isolation procedure. The RNA samples were further treated with deoxyribonuclease I to eliminate contaminating genomic DNA. ABCA1 mRNA levels were than analyzed by real-time based quantitative PCR using Perkin Elmer ABI Prism 7700 and Sequence Detection System software (Perkin Elmer). […] No induction is observed in LXRαβ−/− mice. Thus either LXRα or LXRβ alone is sufficient to induce ABCA1 in the intestine and inhibit the absorption of dietary cholesterol.

ABCG1 mRNA = ABCG1 mRNA induction in cultured peritoneal macrophages; type: cell-based, mice; settings: 24 hours
Text: The individual contributions of both receptors to macrophage gene expression were examined by first measuring the amount of mRNA encoding LXRα and LXRβ in thioglycolate-elicited peritoneal macrophages obtained from mixed wildtype mice. Thioglycolate-elicited peritoneal macrophages were isolated from mice 4 days after peritoneal injection of thioglycolate media. Peritoneal macrophages were harvested by lavage of the peritoneum with phosphate buffered saline (PBS), cells were washed, transferred to 60 mm culture plates and incubated at 37° C. in RPMI 1640 media (Life Technologies) containing 10% FBS, 2 mmol/L glutamine, 100 μg/mL streptomycin and 100 IU penicillin (Life Technologies). After 5 hours at 37° C., cells were washed 5 times with PBS to remove non-adherent cells and adherent cells were further incubated in RPMI 1640 media supplemented with 10% FBS for 24 hours. To determine the mRNA levels of LXRα and LXRβ, after 24 hours total RNA was isolated from cultured macrophages using RNeasy kits (QIAGEN Inc.) according to the supplier's total RNA isolation procedure. The RNA samples were further treated with deoxyribonuclease I to eliminate contaminating genomic DNA. LXRα and LXRβ mRNA levels were than analyzed by real-time based quantitative PCR using Perkin Elmer ABI Prism 7700 and Sequence Detection System software (Perkin Elmer). […] To further examine LXR-dependent gene expression in macrophages, peritoneal macrophages were isolated as described above from mixed wildtype, LXRα−/− (C57BL/6), LXRβ−/−, and LXRαβ−/− mice. After removal of non-adherent cells, the remaining macrophages were than cultured in either the absence or presence of LXR pan-agonist (1.0 μM Compound 1) for 24 hours. At the end of the experiment total RNA was isolated from cultured macrophages using RNeasy kits (QIAGEN Inc.) according to the supplier's total RNA isolation procedure. RNA samples were further treated with deoxyribonuclease I to eliminate contaminating genomic DNA before use. The LXR agonist-dependent induction of the ABCA1 and ABCG1 mRNAs were than analyzed by real-time based quantitative PCR using Perkin Elmer ABI Prism 7700 and Sequence Detection System software (Perkin Elmer). ABCA1 and ABCG1 function as efflux pumps that mediate the transfer of intracellular cholesterol out of cells to HDL particles, a process referred to as reverse cholesterol transport. […] Elimination of LXRα activity (LXRα−/−) has no effect on the agonist-dependent response. In contrast, elimination of LXRβ activity (LXRβ−/−) reduces the agonist-dependent induction of ABCA1 by 82% and the ABCG1 induction by 50%. […] Thus LXRβ alone is sufficient to allow the maximum induction of ABCA1 and ABCG1 in peritoneal macrophages.

peritoneal macrophages = assay: ApoA1-dependent cholesterol efflux assay (reverse cholesterol transport) in peritoneal macrophages; type: cell-based, mice; settings: 1.0 μM
Text: The individual contributions of both receptors to macrophage gene expression were examined by first measuring the amount of mRNA encoding LXRα and LXRβ in thioglycolate-elicited peritoneal macrophages obtained from mixed wildtype mice. Thioglycolate-elicited peritoneal macrophages were isolated from mice 4 days after peritoneal injection of thioglycolate media. Peritoneal macrophages were harvested by lavage of the peritoneum with phosphate buffered saline (PBS), cells were washed, transferred to 60 mm culture plates and incubated at 37° C. in RPMI 1640 media (Life Technologies) containing 10% FBS, 2 mmol/L glutamine, 100 μg/mL streptomycin and 100 IU penicillin (Life Technologies). After 5 hours at 37° C., cells were washed 5 times with PBS to remove non-adherent cells and adherent cells were further incubated in RPMI 1640 media supplemented with 10% FBS for 24 hours. To determine the mRNA levels of LXRα and LXRβ, after 24 hours total RNA was isolated from cultured macrophages using RNeasy kits (QIAGEN Inc.) according to the supplier's total RNA isolation procedure. The RNA samples were further treated with deoxyribonuclease I to eliminate contaminating genomic DNA. LXRα and LXRβ mRNA levels were than analyzed by real-time based quantitative PCR using Perkin Elmer ABI Prism 7700 and Sequence Detection System software (Perkin Elmer). […] Since ABCA1 is involved in mediating reverse cholesterol transport, peritoneal macrophages isolated as described above and cultured for 24 hours in the absence or presence of LXR agonist (1.0 μM Compound 1) were examined in a cholesterol efflux assay which measures reverse cholesterol transport in vitro. Mouse peritoneal macrophages isolated as described above from wildtype (mixed and C57BL/6), LXRα−/− (C57BL/6), LXRβ−/−, and LXRαβ−/− mice were cultured in 96 well plates (5×10^4 cells/well) at 37° C. After 24 hours, cells were labeled for 48 hours with 0.2 μCi/ml ^14C-cholesterol in RPMI 1640 medium with 1% FBS. Following the labeling period, ^14C-cholesterol was removed and the cells were cultured for 24 hours in serum free RPMI 1640 media in the presence or absence of 10 μg/ml apolipoprotein A (ApoA1). In this assay ApoA1 acts as a cholesterol acceptor and mimics the cholesterol-accepting function performed by HDL particles in vivo. Following this incubation, the media is removed, cells are washed and than lysed with 0.2 M sodium hydroxide. To determine ApoA1-dependent cholesterol efflux, the amount of ^14C-cholesterol present in the media is divided by the total counts (media+cell lysate) and the value determined in the absence of ApoA is subtracted from the value determined in the presence of ApoA. […] No effect is observed upon elimination of LXRα alone.

With `O=S(=O)(c1ccccc1)N(CC(F)(F)F)c1ccc(C(O)(C(F)(F)F)C(F)(F)F)cc1` [Compound 1, N-(2,2,2-trifluoroethyl)-N-[4-(2,2,2-trifluoro-1-hydroxy-1-trifluoromethylethyl)-phenyl]-benzene sulfonamide] the “ABCA1 mRNA induction in the intestine” value (ABCA1 mRNA; LXRαβ−/− mice) was “No induction”, the “ABCA1 mRNA fold induction in the intestine” value (from here on “ABCA1 mRNA fold induction”) (ABCA1 mRNA; LXRα−/− mice, depending on the strain) was 7-14 fold and the “ABCA1 mRNA fold induction” value (ABCA1 mRNA; LXRβ−/− mice) was 9 fold. For the same compound, the “ABCA1 mRNA fold induction” value (ABCA1 mRNA; wildtype mice, depending on the strain) was 14-29 fold, the “agonist-dependent ABCG1 mRNA induction” value (ABCG1 mRNA; LXRαβ−/− macrophages, 1.0 μM) was “completely blocks the response” and the “agonist-dependent ABCG1 mRNA induction” value (ABCG1 mRNA; LXRα−/− macrophages, 1.0 μM) was “no effect”. The “reduction of agonist-dependent induction of ABCG1” value (ABCG1 mRNA; LXRβ−/− macrophages versus wildtype, 1.0 μM) was 50%, the fold induction at 1 µM (ABCG1 mRNA; Mus musculus, Macrophage, wildtype macrophages) was 8 and the “reverse cholesterol transport (cholesterol efflux)” value (“reverse cholesterol transport” below) (peritoneal macrophages; LXRαβ−/− macrophages) was “further reduced”. The “reverse cholesterol transport” value (peritoneal macrophages; LXRα−/− (C57BL/6) macrophages) was “No effect”, the “reverse cholesterol transport” value (peritoneal macrophages; LXRβ−/− macrophages) was “significantly reduced” and the “reverse cholesterol transport” value (peritoneal macrophages; wildtype (mixed and C57BL/6) macrophages) was “stimulates reverse cholesterol transport”.

Reference: US6924311B2, “Methods for affecting various diseases utilizing LXR compounds” (X-Ceptor Therapeutics, Inc., priority 2001, dated 2005)
